Results on 5 compounds are retold here after the NIST ThermoML archive (doi:10.1016/j.jct.2006.05.001).

± gives the expanded uncertainty stated by the source.

The nature of data set [1]: refractive index (Na D-line) (dimensionless). The following applies: 293.15 K; 101.33 kPa; Liquid; Standard Abbe refractometry.
For data set [2] the following is noted: Liquid; for mass density: 101.33 kPa; for Normal boiling temperature: Distillation.

As for `CCC(=O)O` [propanoic acid], the refractive index in data set [1] was found to be 1.3808 ± 0.0008. In data set [2] (298.15 K), the mass density was 988.04 ± 0.53 kg/m3. The Normal boiling temperature in data set [2] stood at 141.4 ± 0.5 °C.
As to `CCCCCCCCCO` [nonan-1-ol], in data set [1], the refractive index worked out at 1.4335 ± 0.0008. The mass density in data set [2] (293.15 K) came to 828.5 ± 1.7 kg/m3. For the same compound, in data set [2], the Normal boiling temperature is 215.2 ± 0.5 °C.
`CCCCCCCCCCCCO` [dodecan-1-ol]: the mass density in data set [2] (297.15 K) stood at 830.8 ± 1.5 kg/m3. Further, in data set [2], the Normal boiling temperature stood at 259.4 ± 0.5 °C.
On to `CCCCCCCCO` [octan-1-ol], for which the refractive index in data set [1] came to 1.4292 ± 0.0008. Further, the mass density in data set [2] (298.15 K) was determined as 826.25 ± 0.95 kg/m3. The Normal boiling temperature in data set [2] came out at 195 ± 0.5 °C.
Regarding `CCCCCCCCCCO` [decan-1-ol], the refractive index in data set [1] is on record as 1.4373 ± 0.0008. Also, the mass density in data set [2] (293.15 K) was found to be 829.5 ± 0.94 kg/m3. Moreover, the Normal boiling temperature in data set [2] was determined as 230.6 ± 0.5 °C.

For orientation: refractive index means the speed of light in vacuum divided by its phase velocity in the sample. Broadly, the mass density is mass per unit of volume.
